“Also recorded” adds a separate entry of the source.
Tests used:
[1] = Antioxidant activity, DPPH spectrophotometric method; details: for antioxidant activity (reaction with DPPH): DPPH about 25 μM, antioxidant 60 μM; for reaction time (time for reaching the plateau): DPPH, absorbance at 515 nm
Protocol: The antioxidant activity assays were carried out according to the 2,2-diphenyl-1-picrylhydrazyl (DPPH) spectrophotometric method.[34] Initially, to assess whether the compounds had antioxidant activity and to define the time required by each antioxidant to reach the steady state, the reduction in absorbance over time at 515 nm of a solution of DPPH mixed with the tested compound was recorded until reaching the plateau. […] The value of EC50 can be extrapolated by plotting the percentage of residual DPPH at the steady state as a function of the molar ratio of the antioxidant to initial DPPH.
2,2-Diphenyl-1-picrylhydrazyl (DPPH), MeOH, and ascorbic acid, used as the reference standard, were purchased from Sigma-Aldrich. Micropipettes Labmate (BRAND Dig. 10–100 μL; Dig. 100–1000 μL) and Transferpette (HIGH TECH LAB LM200: 20–200 μL; LM5000: 1000–5000 μL) were used to collect the samples. The assays were carried out by a double beam UV–vis Lambda 40 Perkin Elmer spectrophotometer using optical polystyrene cuvettes (10 × 10 × 45 mm, 340–800 nm optical transparency); each measure was repeated at least in triplicate. For data processing, UV-WIN Lab version 2.0 (Perkin Elmer Corporation) was used. The antioxidant activity of the tested compounds was evaluated by the DPPH method[34] based on the ability of antioxidant compounds to react with the stable radical DPPH, which has a maximum absorption at about 515 nm. Thus, by measuring the decrease in absorbance over time of DPPH solutions to which increasing amounts of the tested compound are added, the antioxidant activity of the compound can be determined.
[…]. To 2.90 mL of MeOH, 60 μL of a DPPH solution in MeOH (∼1.2 mM) and 40 μL of an antioxidant solution in MeOH (4.5 mM) were added to have in the cuvette concentrations of DPPH equal to about 25 μM and of antioxidant equal to 60 μM. The exact DPPH concentration was calculated through the Lambert–Beer relation, known the extinction coefficient of DPPH at 515 nm, equal to 1.25 × 10^4.[34] The absorbance was recorded until the plateau was reached.
. To obtain the initial DPPH concentration, 2.94 mL of MeOH and 60 μL of the DPPH solution in MeOH (∼1.2 mM) were placed in a polystyrene cuvette and the absorbance was recorded at 515 nm. The exact initial DPPH concentration was calculated through the Lambert–Beer relation. For subsequent measurements, the cuvettes were set up by introducing the opportune volume of MeOH to reach a total volume of 3 mL, 60 μL of the DPPH solution in MeOH (∼1.2 mM, to have a final concentration of ∼25 μM), and the appropriate volumes of the antioxidant stock solution in MeOH to have final concentrations between 1.5 and 12 μM for 20 and between 5 and 60 μM for 18 and 30; the absorbance was recorded at 515 nm at the plateau and then after 1 min for compound 20 and after 90 min for compounds 18 and 30. Each measure was repeated four times. With absorbance data, the percentages of residual DPPH at steady state were obtained using the following equation: [drawing 3] where Ac is the average of absorbance in the presence of antioxidant at plateau and A0 is the average of the initial absorbance of DPPH.
The same procedure was performed using ascorbic acid as the antioxidant at cuvette concentrations between 1.5 and 18 μM, recording the absorbance at 515 nm after 2 min from the preparation of the cuvettes.

U-87 MG cell line = test: Cytotoxicity, MTT cell viability assay; details: 24 h
Protocol: Data represent the absorbance % (± SD) relative to untreated cells in the same experiment and standardized to 100%. All data points were performed in triplicate and at least three independent experiments.
After an incubation time of 24 h, the medium was replaced by a new fresh medium containing 0.5 mg/mL MTT (Sigma, Deisenhofen, Germany). After 2 h at 37 °C in 5% CO2, unreacted dye was removed and cells were dissolved by DMSO (Merck, Darmstadt, Germany). Absorbance was read at 570 nm by a microtiter spectrophotometer plate reader. The data were expressed as absorbance relative to untreated cells in the same experiment and standardized to 100%. All data points were performed in triplicate and at least three independent experiments.

[2] = target: T1, Electrophorus electricus AChE (EeAChE) (Electrophorus electricus, UniProt O42275); test: biochemical; details: 100 μM acetylthiocholine; read-out: EeAChE, IC50 ± SE
T1 construct: purchased Sigma-Aldrich (Milan, Italy)
T1 sequence (O42275 24-633): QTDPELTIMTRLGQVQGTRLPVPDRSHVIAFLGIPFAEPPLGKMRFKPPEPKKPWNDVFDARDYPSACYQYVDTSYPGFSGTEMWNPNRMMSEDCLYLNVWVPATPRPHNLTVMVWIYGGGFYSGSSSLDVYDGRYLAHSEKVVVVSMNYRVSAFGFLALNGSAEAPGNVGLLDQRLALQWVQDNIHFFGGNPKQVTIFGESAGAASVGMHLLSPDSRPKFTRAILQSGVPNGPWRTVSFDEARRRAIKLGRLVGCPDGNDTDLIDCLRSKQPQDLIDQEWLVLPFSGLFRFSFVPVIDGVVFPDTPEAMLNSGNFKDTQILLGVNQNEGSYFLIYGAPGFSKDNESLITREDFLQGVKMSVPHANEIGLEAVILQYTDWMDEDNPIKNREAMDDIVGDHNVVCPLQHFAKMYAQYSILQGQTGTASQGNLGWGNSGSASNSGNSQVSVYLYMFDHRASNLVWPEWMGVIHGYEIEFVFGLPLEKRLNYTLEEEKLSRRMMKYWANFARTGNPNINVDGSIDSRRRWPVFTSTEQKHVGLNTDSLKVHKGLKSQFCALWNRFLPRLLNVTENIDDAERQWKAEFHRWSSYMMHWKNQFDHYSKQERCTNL
Protocol: The recorded data were analyzed with the enzyme kinetic module of SigmaPlot. All measurements were replicated three times, and the IC50 value obtained was confirmed by repeating the experiment twice.
For this purpose, eight different inhibitor solutions were prepared. […] The recorded data were analyzed by the enzyme kinetic module of SigmaPlot plotting the percentages of inhibition as a function of the different concentrations of the inhibitor, expressed in logarithmic scale, to obtain the sigmoid graph, from which it was possible to determine the IC50 value of the tested compound. The IC50 was confirmed by repeating the experiment twice.

Row | Structure (SMILES) | antioxidant activity (reaction with DPPH) [1] | reaction time (time for reaching the plateau) [1] [min] | cytotoxicity on U-87 MG cells (U-87 MG cell line; concentrations up to 10 μM) | IC50 [2] [nM] | cytotoxic effect on U-87 MG cells (U-87 MG cell line; 1 to 50 μM)
1 | COc1cc(CNCCCCCCNc2ncccn2)ccc1O [Compound 18, 2-Methoxy-4-(((6-(pyrimidin-2-ylamino)hexyl)amino)methyl)phenol] | antioxidant properties; also recorded: showed antioxidant activity; also recorded: possess antioxidant activity | 90 | – | – | –
2 | Oc1cccc(CNCCCCCCNc2ncccn2)c1 [Compound 19, 3-(((6-(Pyrimidin-2-ylamino)hexyl)amino)methyl)phenol] | did not show a significant ability to interact with DPPH; also recorded: no significant antioxidant capacity | – | – | – | –
3 | Oc1cccc(CNCCCCCCNc2ncccn2)c1O [Compound 20, 3-(((6-(Pyrimidin-2-ylamino)hexyl)amino)methyl)benzene-1,2-diol] | antioxidant properties; also recorded: showed antioxidant activity; also recorded: possess antioxidant activity; also recorded: most efficient antioxidant | 1 | not cytotoxic | 622 | –
4 | c1cnc(NCCCCCCNCc2c[nH]c3ccccc23)nc1 [Compound 22, N^1-((1H-Indol-3-yl)methyl)-N^6-(pyrimidin-2-yl)hexane-1,6-diamine] | – | – | – | – | more pronounced cytotoxic effect
5 | COc1cc(CNCCCCCCNc2ccccn2)ccc1O [Compound 30, 2-Methoxy-4-(((6-(pyridin-2-ylamino)hexyl)amino)methyl)phenol] | antioxidant properties; also recorded: showed antioxidant activity; also recorded: possess antioxidant activity | 90 | – | – | –
